Tests used:
M. smegmatis ribosomes = assay: bacterial coupled transcription/translation assay, luciferase reporter (in vitro translation); format: biochemical; conditions: for IC50: protein synthesis by in vitro translation reaction, M. smegmatis ribosomes; for IC50 / inhibition of translation of a reporter gene by Mtb ribosomes in vitro / inhibition of luciferase activity compared with chloramphenicol: FIG. 4; for inhibition of translation of a reporter gene by Mtb ribosomes in vitro: dose-dependent; for inhibition of luciferase activity compared with chloramphenicol: luciferase activity vs compound concentration
[1] = system: 29mer RNA SEQ ID NO: 1, hairpin 91 of M. tuberculosis PTC; assay: T2 relaxation (CPMG) NMR fragment screen; format: binding

Row | SMILES | IC50 (M. smegmatis ribosomes) | inhibition of translation of a reporter gene by Mtb ribosomes in vitro (M. smegmatis ribosomes) | inhibition of luciferase activity compared with chloramphenicol (M. smegmatis ribosomes) | other results
1 | O=C(N[C@H](CO)[C@H](O)c1ccc([N+](=O)[O-])cc1)C(Cl)Cl [chloramphenicol, reference compound] | 9.2 µM |  |  | 
2 | CCN1CCN(Cc2csc(-c3ccccc3)n2)CC1 [Compound Nr. 8, 1-ethyl-4-[(2-phenylthiazol-4-yl)methyl]piperazine] | 4.8 µM | inhibit translation of a reporter gene | about twice as better than both | 
3 | CNCc1ccc(-c2nccs2)cc1 [N-methyl-4-(1,3-thiazol-2-yl)benzylamine] |  |  |  | hit in T2-edited (CPMG NMR) mini-screen ([1]; pool number 2 of three pools of 10 fragments, with and without target RNA, FIG. 3): hits
4 | NCc1csc(-c2cccc(Cl)c2)n1 [[2-(3-chlorophenyl)-1,3-thiazol-4-yl]methanamine] |  |  |  | change in T2 upon addition of RNA ([1]; pool 81, peaks 1-3, 1D CPMG spectra, FIG. 7A): largest change in T2
5 | Cc1nc(CN2CCN(Cc3csc(-c4ccccc4)n3)CC2)cs1 [Compound Nr. 2, 1-[(2-methylthiazol-4-yl)methyl]-4-[(2-phenylthiazol-4-yl)methyl]piperazine] | 8.9 µM | inhibit translation of a reporter gene | as effective inhibitor of luciferase activity as chloramphenicol | inhibition activity compared among compounds (M. smegmatis ribosomes; Nr. 2 compared to compounds Nr. 3, 4 and 5, data not shown): higher inhibition activity
